One assay deals with PIM1 (Homo sapiens, UniProt P11309). Nature of the assay: Pim 1 AlphaScreen assay (high ATP). The class given is biochemical. As to conditions: read-out: Pim1 IC50. The procedure, abridged:
(§1)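 This is a bead-based AlphaScreen run at high ATP (11-125× Km) with biotin-Bad peptide (100 nM in the substrate mix), in 50 mM Hepes pH 7.5, 5 mM MgCl2, 0.05% BSA, 0.01% Tween-20, 1 mM DTT and 2.5% DMSO final. After ~2 h the reaction was stopped with EDTA. Phospho-peptide was detected overnight with anti-phospho Ser/Thr antibody on Protein A and streptavidin beads, giving IC50.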
A general note: In Alpha technology, singlet oxygen from a donor bead excites a nearby acceptor bead.

For another assay, the target named is PIM3 (Homo sapiens, UniProt Q86V86). Kind of assay: Pim 3 AlphaScreen assay (high ATP). The class given is biochemical. The note with it: read-out: Pim3 IC50. The procedure, abridged: as §1

In general, IC50 refers to the point on the concentration scale where inhibition reaches its midpoint.

Chain of PIM1 (P11309 whole entry): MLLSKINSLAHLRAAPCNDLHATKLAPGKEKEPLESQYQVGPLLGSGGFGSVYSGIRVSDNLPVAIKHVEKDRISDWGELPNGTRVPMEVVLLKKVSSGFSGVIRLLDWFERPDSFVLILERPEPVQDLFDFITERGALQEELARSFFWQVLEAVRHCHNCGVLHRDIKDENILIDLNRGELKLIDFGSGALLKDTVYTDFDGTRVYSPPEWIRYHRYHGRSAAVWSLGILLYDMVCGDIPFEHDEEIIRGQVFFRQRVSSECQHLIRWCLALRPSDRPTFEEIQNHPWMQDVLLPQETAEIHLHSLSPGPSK

With `COc1cc(F)c(-c2nc(C(=O)Nc3cnccc3[C@H]3C[C@@H](N)[C@](C)(O)[C@@H](C)O3)ccc2F)c(F)c1` [Example 242, N-(4-((2R,4R,5S,6R)-4-amino-5-hydroxy-5,6-dimethyltetrahydro-2H-pyran-2-yl)pyridin-3-yl)-6-(2,6-difluoro-4-methoxyphenyl)-5-fluoropicolinamide], the IC50 at PIM1 turned out to be 0.04 nM; on PIM3, 0.8 nM.
Take `N[C@H]1C[C@@H](c2ccncc2NC(=O)c2csc(-c3c(F)cccc3F)n2)O[C@H]2CCC[C@H]21` [Example 230, N-(4-((2S,4S,4aS,7aS)-4-aminooctahydrocyclopenta[b]pyran-2-yl)pyridin-3-yl)-2-(2,6-difluorophenyl)thiazole-4-carboxamide]: the IC50 at PIM1 came to 6.83 nM; on PIM3, 482 nM.
On to `C[C@H]1O[C@@H](c2ccncc2NC(=O)c2ccc(F)c(-c3c(F)cccc3F)n2)C[C@@H](N)[C@]1(C)O` [Example 219, N-(4-((2R,4R,5S,6R)-4-amino-5-hydroxy-5,6-dimethyltetrahydro-2H-pyran-2-yl)pyridin-3-yl)-6-(2,6-difluorophenyl)-5-fluoropicolinamide], for which the IC50 on PIM1 came out at 0.09 nM; at PIM3 it was 1.4 nM.
Turning to `Nc1cc(F)c(-c2c(F)cccc2F)nc1C(=O)Nc1cnccc1[C@H]1C[C@@H](N)[C@@]2(O)CCCC[C@H]2O1` [Example 238, 3-amino-N-(4-((2R,4R,4aS,8aR)-4-amino-4a-hydroxyoctahydro-2H-chromen-2-yl)pyridin-3-yl)-6-(2,6-difluorophenyl)-5-fluoropicolinamide], the IC50 at PIM1 came out at 0.08 nM; at PIM3 it was 0.6 nM.
With `N[C@@H]1C[C@H](c2ccncc2NC(=O)c2ccc(F)c(-c3c(F)cccc3F)n2)O[C@@H]2CCC[C@H]12` [Example 224, N-(4-((2R,4R,4aR,7aR)-4-aminooctahydrocyclopenta[b]pyran-2-yl)pyridin-3-yl)-6-(2,6-difluorophenyl)-5-fluoropicolinamide], the IC50 on PIM1 is 0.1 nM; at PIM3, 4.1 nM.

For the origin of these results see patent US20130109682A1, “CYCLIC ETHER COMPOUNDS USEFUL AS KINASE INHIBITORS” (NOVARTIS AG, priority 2010, published 2013).
